Laboratory results: ChEMBL document CHEMBL2448811, “Comparison of the accuracy of experimental and predicted pKa values of basic and acidic compounds” (Pharm Res, 2013)
Where a SMILES comes first, the peptide text is derived from it.

Experiments:
physchem [1] = test: physchem
physchem [2] = test: physchem; remark: listed apart in the source
physchem [3] = test: physchem; remark: listed apart in the source
physchem [4] = test: physchem; remark: listed apart in the source

Work on Cc1ncc(CO)c(CN)c1O [PYRIDOXAMINE] yielded a pKa (physchem [1]) of 10.3.

With CCCCNc1cc(C(=O)O)cc(S(N)(=O)=O)c1Oc1ccccc1 [BUMETANIDE] the pKa (physchem [2]) was 3.6 and the pKa (physchem [3]; pKa) was 3.83.

CCCCCCCC(=O)OC(CC(=O)[O-])C[N+](C)(C)C (centres undefined) gave a pKa (physchem [1]) of 3.6.

CCN1CCCC1CNC(=O)c1cc(S(=O)(=O)CC)c(N)cc1OC (centres undefined) [AMISULPRIDE] gave a pKa (physchem [2]) of 9.3 and a pKa (physchem [3]; pKa) of 9.37.

With COc1c(N2CCNC(C)C2)c(F)cc2c(=O)c(C(=O)O)cn(C3CC3)c12 (centres undefined) [GATIFLOXACIN] the pKa (physchem [2]) was 9.4 and the pKa (physchem [3]; pKa) was 8.74.

Work on CCCCCCCCCC(=O)OC(CC(=O)[O-])C[N+](C)(C)C (centres undefined) yielded a pKa (physchem [1]) of 3.65.

Nc1ccc(C(=O)O)c(O)c1 [AMINOSALICYLIC ACID] gave a pKa (physchem [2]) of 3.4 and a pKa (physchem [3]; pKa) of 3.62.

With CO[C@@H]1[C@@H](O[C@@H]2O[C@H](C)[C@@H](O)[C@H](N(C)C)[C@H]2O)[C@@H](CC=O)C[C@@H](C)C(=O)/C=C/[C@@H]2O[C@H]2C[C@@H](C)OC(=O)C[C@H]1OC(C)=O the pKa (physchem [4]; pKa) was 8.44.

Nc1ccc(C(=O)O)cc1 [AMINOBENZOIC ACID] showed a pKa (physchem [1]) of 4.87.

With CC(Cc1ccc(C(C)(C)C)cc1)CN1C[C@@H](C)O[C@@H](C)C1 (some centres undefined) [FENPROPIMORPH] the pKa (physchem [4]) was 7.34.

Compound Cc1cc(=O)oc2cc(O[C@@H]3O[C@H](CO)[C@@H](O)[C@H](O)[C@H]3O)ccc12 has a pKa (physchem [4]; pKa) of 2.82.

Work on CC(NC(C)(C)C)C(=O)c1cccc(Cl)c1 (centres undefined) [BUPROPION] yielded a pKa (physchem [3]) of 8.35.

N[C@@H](CC(=O)O)C(=O)O [ASPARTIC ACID] gave a pKa (physchem [4]; pKa) of 9.67.

CN(C)[C@@H]1C(=O)C(C(N)=O)=C(O)[C@@]2(O)C(O)=C3C(=O)c4c(O)cccc4[C@@](C)(O)C3[C@H](O)C12 (some centres undefined) showed a pKa (physchem [1]) of 7.32.

For CCCC(=O)OC(CC(=O)[O-])C[N+](C)(C)C (centres undefined) [Butyryl-carnitine], the pKa (physchem [1]) was 3.56.

Work on CN(C)CCO[C@]1(c2ccccc2)C[C@H]2CC[C@]1(C)C2(C)C yielded a pKa (physchem [4]; pKa) of 9.61.

Work on CNC(=C[N+](=O)[O-])NCCSCc1ccc(CN(C)C)o1 [RANITIDINE] yielded a pKa (physchem [4]; pKa) of 8.31.

With CCC(=O)O[C@](Cc1ccccc1)(c1ccccc1)[C@H](C)CN(C)C [PROPOXYPHENE] the pKa (physchem [4]) was 9.06.

With CCCCC[C@H](O)/C=C/[C@H]1[C@H](O)CC(=O)[C@@H]1CCCCCCC(=O)O [ALPROSTADIL] the pKa (physchem [4]; pKa) was 4.87.

CCN(CC)C(=O)Nc1ccc(OCC(O)CNC(C)(C)C)c(C(C)=O)c1 (centres undefined) [CELIPROLOL] showed a pKa (physchem [4]; pKa) of 9.66.

In the case of CCCCC[C@H](O)/C=C/[C@H]1[C@H](O)CC(=O)[C@@H]1C/C=C\CCCC(=O)O [DINOPROSTONE], the pKa (physchem [4]; pKa) is reported as 4.77.

N[C@@H](Cc1c[nH]c2ccccc12)C(=O)N[C@@H](Cc1c[nH]c2ccccc12)C(=O)O (H-Trp-Trp-OH) showed a pKa (physchem [4]; pKa) of 3.38.

With CN1CCN(c2c(F)cc3c(=O)c(C(=O)O)cn(CCF)c3c2F)CC1 [FLEROXACIN] the pKa (physchem [2]) was 5.5 and the pKa (physchem [3]; pKa) was 8.8.

Work on CN/C(=C/[N+](=O)[O-])NCCSCc1ccc(CN(C)C)o1 yielded a pKa (physchem [2]) of 9.6 and a pKa (physchem [3]) of 8.47.

CC[C@H]1OC(=O)C[C@@H](O)[C@H](C)[C@@H](O[C@@H]2O[C@H](C)C[C@H](N(C)C)[C@H]2O)[C@@H](CC=O)C[C@@H](C)C(=O)/C=C/C(C)=C/[C@@H]1C [REPROMICIN] gave a pKa (physchem [4]; pKa) of 8.83.

With CN(C)CC/C=C1\c2ccccc2COc2ccccc21 [E-DOXEPIN] the pKa (physchem [2]) was 8.7 and the pKa (physchem [3]; pKa) was 9.

CNC[C@H](O)[C@@H](O)[C@H](O)[C@H](O)CO [MEGLUMINE] gave a pKa (physchem [4]; pKa) of 9.6.
